Measurements from patent US5688938A, “Calcium receptor-active molecules” (priority 1995, dated 1997).
“Also recorded” adds a separate entry of the source.

Key:
[1] = target: T1, human parathyroid cell calcium receptor (Homo sapiens, UniProt P41180); experiment: Cl^- current in Xenopus oocytes expressing cloned human parathyroid calcium receptor; format: cell-based; conditions: for Cl^- current: 0.3 mM extracellular Ca^2+, NPS 019 3 to 30 μM
T1 construct: cRNA injected in Xenopus oocytes
T1 sequence (P41180 20-1078 R990G/E1011Q): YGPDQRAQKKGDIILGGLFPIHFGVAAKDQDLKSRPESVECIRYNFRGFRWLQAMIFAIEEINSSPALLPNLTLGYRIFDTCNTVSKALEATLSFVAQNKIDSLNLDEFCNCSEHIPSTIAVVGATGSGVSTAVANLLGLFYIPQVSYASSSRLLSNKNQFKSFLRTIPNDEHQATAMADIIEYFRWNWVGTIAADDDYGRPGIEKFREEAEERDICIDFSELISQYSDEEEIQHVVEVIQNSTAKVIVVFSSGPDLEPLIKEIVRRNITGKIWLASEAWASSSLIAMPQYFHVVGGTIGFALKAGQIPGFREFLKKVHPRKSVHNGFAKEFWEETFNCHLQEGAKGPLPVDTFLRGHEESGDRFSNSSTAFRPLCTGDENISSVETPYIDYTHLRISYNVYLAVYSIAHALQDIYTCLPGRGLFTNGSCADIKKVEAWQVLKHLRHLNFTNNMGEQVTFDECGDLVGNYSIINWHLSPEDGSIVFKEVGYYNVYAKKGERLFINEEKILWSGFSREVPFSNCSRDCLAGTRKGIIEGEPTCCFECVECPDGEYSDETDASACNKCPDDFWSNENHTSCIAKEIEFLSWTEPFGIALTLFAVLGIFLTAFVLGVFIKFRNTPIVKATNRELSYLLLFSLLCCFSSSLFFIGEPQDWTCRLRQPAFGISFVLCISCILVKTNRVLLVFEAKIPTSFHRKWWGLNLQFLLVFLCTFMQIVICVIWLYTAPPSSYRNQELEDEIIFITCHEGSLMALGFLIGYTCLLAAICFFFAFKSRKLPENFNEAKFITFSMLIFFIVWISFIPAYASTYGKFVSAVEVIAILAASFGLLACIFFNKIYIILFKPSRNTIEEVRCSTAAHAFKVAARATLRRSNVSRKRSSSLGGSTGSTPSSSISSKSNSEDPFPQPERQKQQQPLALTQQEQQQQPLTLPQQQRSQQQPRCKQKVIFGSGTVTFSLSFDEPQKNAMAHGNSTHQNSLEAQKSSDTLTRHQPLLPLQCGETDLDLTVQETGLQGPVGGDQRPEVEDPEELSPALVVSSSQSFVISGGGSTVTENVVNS
Experimental: Representative cDNA inserts for both size classes were subcloned into the plasmid vector pBluescript SK. Linearization followed by in vitro transcription using T7 RNA polymerase produced cRNA transcripts. The cRNA transcripts were injected into Xenopus oocytes (150 ng/μl RNA; 50 nl/oocyte) for functional analysis. Following incubation periods of 2-4 days, the oocytes were assayed for the presence of functional calcium receptors. Both clone types gave rise to functional calcium receptors as assessed by the stimulation of calcium-activated chloride currents upon addition of appropriate calcium receptor agonists. […] Thus, both clones encode a functional, human parathyroid cell calcium receptor.
Xenopus oocytes were injected with pHuPCaR 5.2, the 5.2 Kb cDNA encoding a parathyroid cell calcium receptor derived from a human parathyroid cell adenoma. (See Example 27.) After two to three days, Cl^- currents were measured in the oocytes using a two-electrode voltage clamp.

[2] = system: osteoclast calcium receptor; experiment: [Ca^2+]i (indo-1) in rat osteoclasts; format: cell-based
[3] = target: T2, parathyroid cell calcium receptor (Bos taurus, UniProt P35384); experiment: cell-based; format: cell-based
T2 sequence (P35384 21-1085 limits assumed): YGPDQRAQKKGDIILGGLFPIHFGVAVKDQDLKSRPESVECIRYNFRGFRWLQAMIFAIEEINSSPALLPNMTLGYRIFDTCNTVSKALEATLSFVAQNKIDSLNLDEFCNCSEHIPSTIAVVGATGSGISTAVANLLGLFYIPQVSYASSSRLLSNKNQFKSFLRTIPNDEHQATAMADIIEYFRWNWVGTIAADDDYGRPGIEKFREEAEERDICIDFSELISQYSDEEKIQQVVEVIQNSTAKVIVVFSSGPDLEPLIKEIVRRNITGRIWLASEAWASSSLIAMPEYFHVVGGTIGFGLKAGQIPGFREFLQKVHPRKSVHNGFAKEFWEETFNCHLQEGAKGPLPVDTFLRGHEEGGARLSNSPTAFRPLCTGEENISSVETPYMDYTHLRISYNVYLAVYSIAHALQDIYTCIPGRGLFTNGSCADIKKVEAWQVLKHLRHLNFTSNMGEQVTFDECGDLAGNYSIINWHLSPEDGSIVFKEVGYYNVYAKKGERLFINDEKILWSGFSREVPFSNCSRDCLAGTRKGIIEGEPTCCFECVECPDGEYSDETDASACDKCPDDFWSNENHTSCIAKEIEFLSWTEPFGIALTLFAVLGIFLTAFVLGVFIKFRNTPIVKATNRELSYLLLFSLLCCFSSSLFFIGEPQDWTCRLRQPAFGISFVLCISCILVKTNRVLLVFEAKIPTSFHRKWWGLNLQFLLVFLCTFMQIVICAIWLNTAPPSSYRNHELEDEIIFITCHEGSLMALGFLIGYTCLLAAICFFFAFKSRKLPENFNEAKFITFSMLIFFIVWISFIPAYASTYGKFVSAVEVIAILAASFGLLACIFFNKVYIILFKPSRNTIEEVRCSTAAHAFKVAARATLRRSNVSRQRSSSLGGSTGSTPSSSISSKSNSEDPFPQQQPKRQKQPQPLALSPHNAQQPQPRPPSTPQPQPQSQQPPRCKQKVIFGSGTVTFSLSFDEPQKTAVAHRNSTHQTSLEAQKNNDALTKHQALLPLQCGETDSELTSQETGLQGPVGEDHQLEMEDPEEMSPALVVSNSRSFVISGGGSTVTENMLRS

[4] = serum ionized Ca^2+ in parathyroidectomized rats; format: in vivo, rat; conditions: oral
Excerpt: To determine the primary target tissue upon which NPS R-467 acts to cause a hypocalcemic response, the parathyroid glands in rats were surgically removed. Animals receiving a total parathyroidectomy become hypocalcemic and are largely dependent upon dietary calcium to maintain serum Ca^2+ homeostasis.

[5] = serum/plasma Ca^2+, PTH and calcitonin in rats, oral; format: in vivo; conditions: rat, oral
Excerpt: Rats (male, Sprague-Dawley, 250-300 g) were fed standard rat chow and fasted overnight prior to the experiment. NPS R-467 was suspended in corn oil and administered as a single oral dose through a gavage needle. Three hours later a sample of blood was taken from the tail vein and assessed for ionized Ca^2+ levels.

bovine parathyroid cells = experiment: PTH secretion from bovine parathyroid cells; format: cell-based
Experimental: In most experiments, cells loaded with fura-2 were also used in studies of PTH secretion.
PTH secretion was measured by first suspending cells in PCB containing 0.5 mM CaCl2 and 0.1% BSA.

net positive charge = format: physicochemical

Row | Structure (SMILES) | Cl^- current response in absence of extracellular Ca^2+ [1] | Cl^- current [1] | EC50 ([2]; Table 6, rat osteoclasts) | EC50 ([3]; Table 6, bovine parathyroid cells, read-out: EC50 PARATHYROID) | activation of oocyte-expressed human receptor ([1]; pHuPCaR 5.2 and 4.0) | hypocalcemic response in parathyroidectomized rats [4] | [Ca^2+]i response in Ca^2+-free buffer ([3]; no extracellular Ca^2+, NPS R-467 30 μM) | hypocalcemic response after prior complete nephrectomy [5] | inhibition of PTH secretion (bovine parathyroid cells) | effect on osteoclast response to extracellular Ca^2+ [2] | increase in [Ca^2+]i in osteoclasts [2] | increase in [Ca^2+]i in osteoclasts or effect on basal ([2]; neomycin B 5 mM) | Net (+) Charge (net positive charge; Table 1, at physiological pH) | net positive charge at pH 7.3 (net positive charge; pH 7.3)
1 | NCCCNCCCCNCCCNCCCNCCCNC(=O)Cc1c[nH]c2ccccc12 [NPS 019, reference compound] | persisted | evoked increases in the Cl^- current | > 300 µM | 40 µM | – | – | – | – | – | – | – | – | – | –
2 | COc1cccc([C@@H](C)NCCCc2ccccc2Cl)c1 [NPS R-568, (R)-(+)-N-[3-(2-chlorophenyl)propyl]-α-methyl-3-methoxybenzylamine] | abolished | evoked increases in the Cl^- current | – | – | activated the oocyte-expressed receptor at about the same concentrations | fails to elicit a hypocalcemic response | fails to evoke increases in [Ca^2+ ]i | only marginally affected | – | – | – | – | – | –
3 | NC[C@@H]1O[C@H](O[C@H]2[C@@H](O)[C@H](O[C@@H]3[C@@H](O)[C@H](N)C[C@H](N)[C@H]3O[C@H]3O[C@H](CN)[C@@H](O)[C@H](O)[C@H]3N)O[C@@H]2CO)[C@H](N)[C@@H](O)[C@@H]1O [Neomycin] | – | – | – | – | – | – | – | – | inhibited PTH secretion to the same extent as extracellular Ca^2+ | did not block the increase | failed to evoke any increase in [Ca^2+ ]i; also recorded: Neither neomycin (10 mM) nor spermine (10 or 20 mM) caused increases | without effect on basal [Ca^2+ ]i | +6 | +6
